These results are taken from patent US9561231B2 (AbbVie Inc., priority 2012, dated 2017).

Test [1] deals with T1, first (BD1: amino acids K57-E168) bromodomain of BRD4 (Homo sapiens, UniProt O60885).
T1 construct: His-tagged first (BD1: amino acids K57-E168)
The test can be described thus: TR-FRET bromodomain binding assay, BRD4 BD1. To be noted: TR-FRET assay protocol (A-G, compound concentration range); Ki calculated from IC50, probe Kd and probe concentration; read-out: TR-FRET Binding Ki: BRD4 (BDI_K57-E168). The protocol: (§1) A time-resolved fluorescence resonance energy transfer (TR-FRET) assay was used to determine the affinities of compounds of the Examples listed in Table 1 for each bromodomain of BRD4. His-tagged first (BD1: amino acids K57-E168) and second (BD2: amino acids E352-E168) bromodomains of BRD4 were expressed and purified. An Alexa647-labeled BET-inhibitor was used as the fluorescent probe in the assay.
(§2) Compound dilution series were prepared in DMSO via an approximately 3-fold serial dilution from one of the following:
(§3) or 5-fold serial dilution from one of the following:
(§4) Assay method A: 2.5 mM-800 nM
(§5) For Assay methods A, C, D, and F: Compounds were then diluted 6:100 in assay buffer (20 mM Sodium Phosphate, pH 6.0, 50 mM NaCl, 1 mM Ethylenediaminetetraacetic acid, 0.01% Triton X-100, 1 mM DL-Dithiothreitol) to yield 3× working solutions. […] of this solution were added to the assay plate to reach a final volume of 18 μL.
(§6) TR-FRET data were normalized to the means of 24 no-compound controls (“high”) and 8 controls containing 1 μM un-labeled probe (“low”). Percent inhibition was plotted as a function of compound concentration and the data were fit with the 4 parameter logistic equation to obtain IC50s. Inhibition constants (Ki) were calculated from the IC50s, probe Kd and probe concentration. Typical Z′ values were between 0.65 and 0.75.

The target of test [2] is T2, second (BD2: amino acids E352-E168) bromodomain of BRD4 (Homo sapiens, UniProt O60885).
T2 construct: protocol
The test is described as follows: TR-FRET bromodomain binding assay, BRD4 BD2. To be noted: TR-FRET assay protocol (A-G, compound concentration range); Ki calculated from IC50, probe Kd and probe concentration; read-out: TR-FRET Binding Ki: BRD4 (BDII_E352-M457). The protocol: as §1, §2, §3, §4, §5, §6

For `Cn1nc(-c2ccccc2Oc2ccc(C#N)cc2)ccc1=O` [Example 3, 4-[2-(1-methyl-6-oxo-1,6-dihydropyridazin-3-yl)phenoxy]benzonitrile], the Ki (usually the equilibrium dissociation constant of an inhibitor or competing ligand from its target) was 0.851 µM in test [1] and 3.43 µM in test [2].
As for `Cn1nc(-c2ccccc2OC2CCCC2)ccc1=O` [Example 4, 6-[2-(cyclopentyloxy)phenyl]-2-methylpyridazin-3(2H)-one], the inhibitory constant (Ki) is 1.34 µM in test [1] and greater than 4.08 µM in test [2].
Consider `Cn1nc(-c2ccccc2Oc2ccccn2)ccc1=O` [Example 6, 2-methyl-6-[2-(pyridin-2-yloxy)phenyl]pyridazin-3(2H)-one], for which the inhibitory constant (Ki) in test [1] was 4.08 µM; in test [2], 3.17 µM.
Regarding `Cn1nc(-c2ccccc2Oc2ccc(C(F)(F)F)cc2)ccc1=O` [Example 7, 2-methyl-6-{2-[4-(trifluoromethyl)phenoxy]phenyl}pyridazin-3(2H)-one], the inhibition constant (Ki) in test [1] was 1.97 µM; in test [2] it was 10.4 µM.
The corresponding values for `Cn1nc(-c2ccccc2Oc2ccc(S(C)(=O)=O)cc2)ccc1=O` [Example 8, 2-methyl-6-{2-[4-(methylsulfonyl)phenoxy]phenyl}pyridazin-3(2H)-one] are 8.59 µM and 17.8 µM.
For the compound `Cn1nc(-c2cc([N+](=O)[O-])ccc2Oc2ccccc2)ccc1=O` [Example 9, 2-methyl-6-(5-nitro-2-phenoxyphenyl)pyridazin-3(2H)-one], the results for the Ki in test [1] and in test [2] were 10.5 µM and 9.26 µM, respectively.
The corresponding values for `Cn1nc(-c2cc(C#N)ccc2Oc2ccccc2)ccc1=O` [Example 13, 3-(1-methyl-6-oxo-1,6-dihydropyridazin-3-yl)-4-phenoxybenzonitrile] are 13.1 µM and 10.2 µM.
With `Cn1nc(-c2cc(C(=O)O)ccc2Oc2ccccc2)ccc1=O` [Example 15, 3-(1-methyl-6-oxo-1,6-dihydropyridazin-3-yl)-4-phenoxybenzoic acid], the results for the Ki in test [1] and in test [2] were 17.8 µM and 16.3 µM, respectively.
For the compound `COc1cc(=O)n(C)nc1-c1cccc(NS(C)(=O)=O)c1` [Example 19, N-[3-(4-methoxy-1-methyl-6-oxo-1,6-dihydropyridazin-3-yl)phenyl]methanesulfonamide], the values for the Ki in test [1] and in test [2] were 8.85 µM and 8.58 µM, respectively.
Consider `COc1cc(=O)n(C)nc1-c1ccccc1Oc1ccc(C#N)cc1` [Example 32, 4-[2-(4-methoxy-1-methyl-6-oxo-1,6-dihydropyridazin-3-yl)phenoxy]benzonitrile], for which the results for the Ki in test [1] and in test [2] were 5.32 µM and 12.2 µM, respectively.
Consider `COc1cc(=O)n(C)nc1-c1ccccc1Oc1ccc(F)c(Cl)c1` [Example 34, 6-[2-(3-chloro-4-fluorophenoxy)phenyl]-5-methoxy-2-methylpyridazin-3(2H)-one], for which the Ki was 8.17 µM in test [1] and 3.19 µM in test [2].
`COc1ccc(Oc2ccccc2-c2nn(C)c(=O)cc2OC)cc1` [Example 35, 5-methoxy-6-[2-(4-methoxyphenoxy)phenyl]-2-methylpyridazin-3(2H)-one]: the values for the Ki in test [1] and in test [2] were 2.39 µM and 1.08 µM, respectively.
`COc1cc(=O)n(C)nc1-c1ccccc1Oc1cccc(F)c1` [Example 36, 6-[2-(3-fluorophenoxy)phenyl]-5-methoxy-2-methylpyridazin-3(2H)-one]: the Ki in test [1] was 5.06 µM; in test [2], 4.43 µM.
Take `CN1CCC(c2cc(=O)n(C)nc2-c2ccccc2Oc2ccccc2)CC1` [Example 88, 2-methyl-5-(1-methylpiperidin-4-yl)-6-(2-phenoxyphenyl)pyridazin-3(2H)-one]: in test [1], the inhibition constant Ki was 6.79 µM.
With `Cn1cccc1-c1cc(=O)n(C)nc1-c1ccccc1Oc1ccccc1` [Example 194, 2-methyl-5-(1-methyl-1H-pyrrol-2-yl)-6-(2-phenoxyphenyl)pyridazin-3(2H)-one], the Ki in test [2] is 1.43 µM.
On to `CN(C)C(=O)c1cncc(-c2cc(=O)n(C)nc2-c2ccccc2Oc2ccccc2)c1` [Example 215, N,N-dimethyl-5-[1-methyl-6-oxo-3-(2-phenoxyphenyl)-1,6-dihydropyridazin-4-yl]pyridine-3-carboxamide], for which the Ki in test [2] was 11.8 µM.
